# Assay results as given in patent publication US12209087B2, “AKT1 modulators” (Alterome Therapeutics, Inc., priority 2022, dated 2025).
# pIC50: −log10 of the molar value.
# Molecular target: T1, full length AKT E17K (Homo sapiens, UniProt P31749, E17K)
# T1 construct: host or cells: HEK-293 (ATCC CRL-1573)
# Assay: NanoBRET Target Engagement (TE) Assay
# Type: cell-based
# Conditions: competitive displacement of tracer in cells, read-out: AKT1 E17K IC50
# In short: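 Compound and tracer incubated 2 h before luminescence at donor 450 nm and acceptor 600 nm, with extracellular signal inhibited. EC50 by sigmoidal variable-slope regression.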
# T1 sequence (P31749 whole entry E17K): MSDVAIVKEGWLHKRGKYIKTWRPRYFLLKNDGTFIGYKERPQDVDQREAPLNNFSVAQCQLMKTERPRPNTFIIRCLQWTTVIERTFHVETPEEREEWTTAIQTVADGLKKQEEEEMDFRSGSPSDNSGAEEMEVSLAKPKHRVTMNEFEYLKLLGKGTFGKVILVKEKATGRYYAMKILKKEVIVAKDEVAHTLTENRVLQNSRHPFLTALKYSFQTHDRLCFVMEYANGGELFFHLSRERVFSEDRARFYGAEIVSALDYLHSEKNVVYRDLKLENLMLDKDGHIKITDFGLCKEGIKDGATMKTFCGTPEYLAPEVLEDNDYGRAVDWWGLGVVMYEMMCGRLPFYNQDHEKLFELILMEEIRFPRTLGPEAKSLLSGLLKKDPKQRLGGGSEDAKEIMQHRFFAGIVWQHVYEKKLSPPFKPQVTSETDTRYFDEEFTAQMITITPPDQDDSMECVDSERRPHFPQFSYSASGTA
row,SMILES,pIC50
1,"N#Cc1nccc(NC2CCN(Cc3ccc(-n4c(-c5cccnc5N)nc5ccc(-c6ccc(C(F)(F)F)cc6)nc54)cc3)CC2)n1 [Example 471, 4-((1-(4-(2-(2-Aminopyridin-3-yl)-5-(4-(trifluoromethyl)phenyl)-3H-imidazo[4,5-b]pyridin-3-yl)benzyl)piperidin-4-yl)amino)pyrimidine-2-carbonitrile]",7.22 to 7.82
2,"Cn1cc(-c2ccc3nc(-c4cccnc4N)n(-c4ccc(CN5CCC(Nc6nccc(C#N)n6)CC5)cc4)c3n2)ccc1=O [Example 356, 2-((1-(4-(2-(2-Aminopyridin-3-yl)-5-(1-methyl-6-oxo-1,6-dihydropyridin-3-yl)-3H-imidazo[4,5-b]pyridin-3-yl)benzyl)piperidin-4-yl)amino)pyrimidine-4-carbonitrile]",6.22 to 7.22
3,"N#Cc1nccc(N2CCN(Cc3ccc(-n4c(-c5cccnc5N)nc5ccc(-c6ccc(Cl)cc6)nc54)cc3)CC2)n1 [Example 342, 4-(4-(4-(2-(2-Aminopyridin-3-yl)-5-(4-chlorophenyl)-3H-imidazo[4,5-b]pyridin-3-yl)benzyl)piperazin-1-yl)pyrimidine-2-carbonitrile]",7.22 to 7.82
4,"N#Cc1cc(N2CCN(Cc3ccc(-n4c(-c5cccnc5N)nc5ccc(-c6ccccc6Cl)nc54)cc3)CC2)ncn1 [Example 326, 6-(4-(4-(2-(2-Aminopyridin-3-yl)-5-(2-chlorophenyl)-3H-imidazo[4,5-b]pyridin-3-yl)benzyl)piperazin-1-yl)pyrimidine-4-carbonitrile]",7.22 to 7.82
5,"Cc1cc(C)c2nc(-c3cccnc3N)n(-c3ccc(CN4CCC(Nc5ccnc(C#N)n5)CC4)cc3)c2n1 [Example 493, 4-((1-(4-(2-(2-Aminopyridin-3-yl)-5,7-dimethyl-3H-imidazo[4,5-b]pyridin-3-yl)benzyl)piperidin-4-yl)amino)pyrimidine-2-carbonitrile]",> 7.82
6,"N#Cc1nccc(NC2CCN(Cc3ccc(-n4c(-c5cccnc5N)nc5ccc(-c6cnn(C7CC7)c6)nc54)cc3)CC2)n1 [Example 555, 4-((1-(4-(2-(2-Aminopyridin-3-yl)-5-(1-cyclopropyl-1H-pyrazol-4-yl)-3H-imidazo[4,5-b]pyridin-3-yl)benzyl)piperidin-4-yl)amino)pyrimidine-2-carbonitrile]",> 7.82
7,"N#Cc1ccnc(N2CCN(Cc3ccc(-n4c(-c5cccnc5N)nc5ccc(-c6ccc(Cl)cc6)nc54)cc3)CC2)n1 [Example 343, 2-(4-(4-(2-(2-Aminopyridin-3-yl)-5-(4-chlorophenyl)-3H-imidazo[4,5-b]pyridin-3-yl)benzyl)piperazin-1-yl)pyrimidine-4-carbonitrile]",6.22 to 7.22
8,"Cc1nn(C)nc1-c1ccc2nc(-c3nccnc3N)n(-c3ccc(CN4CCC(Nc5ccnc(C#N)n5)CC4)cc3)c2n1 [Example 635, 4-((1-(4-(2-(3-Aminopyrazin-2-yl)-5-(2,5-dimethyl-2H-1,2,3-triazol-4-yl)-3H-imidazo[4,5-b]pyridin-3-yl)benzyl)piperidin-4-yl)amino)pyrimidine-2-carbonitrile]",7.22 to 7.82
9,"N#Cc1ccnc(N2CCN(Cc3ccc(-n4c(-c5cccnc5N)nc5ccc(-c6ccccc6C#N)nc54)cc3)CC2)n1 [Example 322, 2-(4-(4-(2-(2-Aminopyridin-3-yl)-5-(2-cyanophenyl)-3H-imidazo[4,5-b]pyridin-3-yl)benzyl)piperazin-1-yl)pyrimidine-4-carbonitrile]",7.22 to 7.82

# Continued, values first:
row,pIC50,SMILES
1,> 7.82,"N#Cc1nccc(N2CC3(CN(Cc4ccc(-n5c(-c6cccnc6N)nc6ccc(-c7ccccc7)nc65)cc4)C3)C2)n1 [Example 366, 4-(6-(4-(2-(2-Aminopyridin-3-yl)-5-phenyl-3H-imidazo[4,5-b]pyridin-3-yl)benzyl)-2,6-diazaspiro[3.3]heptan-2-yl)pyrimidine-2-carbonitrile]"
2,> 7.82,"N#Cc1nccc(NC2CCN(Cc3ccc(-n4c(-c5cccnc5N)nc5ccc(-c6ccc(F)cc6O)nc54)cc3)CC2)n1 [Example 544, 4-((1-(4-(2-(2-Aminopyridin-3-yl)-5-(4-fluoro-2-hydroxyphenyl)-3H-imidazo[4,5-b]pyridin-3-yl)benzyl)piperidin-4-yl)amino)pyrimidine-2-carbonitrile]"
3,> 7.82,"N#Cc1nccc(NC2CCN(Cc3ccc(-n4c(-c5cccnc5N)nc5ccc(-c6ccncc6)nc54)cc3)CC2)n1 [Example 433, 4-((1-(4-(2-(2-Aminopyridin-3-yl)-5-(pyridin-4-yl)-3H-imidazo[4,5-b]pyridin-3-yl)benzyl)piperidin-4-yl)amino)pyrimidine-2-carbonitrile]"
4,> 7.82,"N#Cc1cccc(-c2ccc3nc(-c4cccnc4N)n(-c4ccc(CN5CCN(c6ccnc(C#N)n6)CC5)cc4)c3n2)c1 [Example 331, 4-(4-(4-(2-(2-Aminopyridin-3-yl)-5-(3-cyanophenyl)-3H-imidazo[4,5-b]pyridin-3-yl)benzyl)piperazin-1-yl)pyrimidine-2-carbonitrile]"
5,> 7.82,"N#Cc1nccc(NC2CCN(Cc3ccc(-n4c(-c5cccnc5N)nc5ccc(Cl)nc54)cc3)CC2)n1 [Example 405, 4-((1-(4-(2-(2-Aminopyridin-3-yl)-5-chloro-3H-imidazo[4,5-b]pyridin-3-yl)benzyl)piperidin-4-yl)amino)pyrimidine-2-carbonitrile]"

# Same assay, conditions: competitive tracer displacement in living cells, read-out: AKT1 E17K IC50
row,SMILES,pIC50
1,"N#Cc1ncnc(N2C3CCC2CN(Cc2ccc(-n4c(-c5cccnc5N)nc5ccc(-c6ccccc6)nc54)cc2)C3)n1 [Example 270, 4-(3-(4-(2-(2-Aminopyridin-3-yl)-5-phenyl-3H-imidazo[4,5-b]pyridin-3-yl)benzyl)-3,8-diazabicyclo[3.2.1]octan-8-yl)-1,3,5-triazine-2-carbonitrile]",6.22 to 7.22
2,"C[C@@H]1CN(Cc2ccc(-n3c(-c4cccnc4N)nc4ccc(-c5ccccc5)nc43)cc2)C[C@H](C)N1c1ncnc(C#N)n1 [Example 277, 4-((2R,6S)-4-(4-(2-(2-aminopyridin-3-yl)-5-phenyl-3H-imidazo[4,5-b]pyridin-3-yl)benzyl)-2,6-dimethylpiperazin-1-yl)-1,3,5-triazine-2-carbonitrile]",7.22 to 7.82
3,"N#Cc1cccc(C(=O)NC2CCN(Cc3ccc(-n4c(-c5cccnc5N)nc5ccc(-c6ccccc6)nc54)cc3)CC2)n1 [Example 56, N-(1-(4-(2-(2-Aminopyridin-3-yl)-5-phenyl-3H-imidazo[4,5-b]pyridin-3-yl)benzyl)piperidin-4-yl)-6-cyanopicolinamide]",> 7.82
4,"N#Cc1ccnc(N2CC3CCC(C2)N3Cc2ccc(-n3c(-c4cccnc4N)nc4ccc(-c5ccccc5)nc43)cc2)n1 [Example 212, 2-(8-(4-(2-(2-Aminopyridin-3-yl)-5-phenyl-3H-imidazo[4,5-b]pyridin-3-yl)benzyl)-3,8-diazabicyclo[3.2.1]octan-3-yl)pyrimidine-4-carbonitrile]",6.22 to 7.22
5,"N#Cc1cccnc1OC1CCN(Cc2ccc(-n3c(-c4cccnc4N)nc4ccc(-c5ccccc5)nc43)cc2)CC1 [Example 9, 2-((1-(4-(2-(2-Aminopyridin-3-yl)-5-phenyl-3H-imidazo[4,5-b]pyridin-3-yl)benzyl)piperidin-4-yl)oxy)nicotinonitrile]",6.22 to 7.22
6,"N#Cc1ncnc(N2CCC3(CCN(Cc4ccc(-n5c(-c6cccnc6N)nc6ccc(-c7ccccc7)nc65)cc4)C3)C2)n1 (stereo not shown) [Example 251, 4-(7-(4-(2-(2-aminopyridin-3-yl)-5-phenyl-3H-imidazo[4,5-b]pyridin-3-yl)benzyl)-2,7-diazaspiro[4.4]nonan-2-yl)-1,3,5-triazine-2-carbonitrile]",> 7.82

# Further lines, results first:
row,pIC50,SMILES
1,7.22 to 7.82,"N#Cc1nccc(N2CCN(Cc3ccc(-n4c(-c5cccnc5N)nc5ccc(-c6ccc(F)cc6)nc54)cc3)CC2)n1 [Example 242, 4-(4-(4-(2-(2-Aminopyridin-3-yl)-5-(4-fluorophenyl)-3H-imidazo[4,5-b]pyridin-3-yl)benzyl)piperazin-1-yl)pyrimidine-2-carbonitrile]"
2,6.22 to 7.22,"N#Cc1nccnc1C(=O)N1CCN(Cc2ccc(-n3c(-c4cccnc4N)nc4ccc(-c5ccccc5)nc43)cc2)CC1 [Example 163, 3-(4-(4-(2-(2-aminopyridin-3-yl)-5-phenyl-3H-imidazo[4,5-b]pyridin-3-yl)benzyl)piperazine-1-carbonyl)pyrazine-2-carbonitrile]"
3,5.00 to 6.22,"N#Cc1nccc(C(=O)NCc2ccc(-n3c(-c4cccnc4N)nc4cccnc43)cc2)n1 [Example 148, N-(4-(2-(2-Aminopyridin-3-yl)-3H-imidazo[4,5-b]pyridin-3-yl)benzyl)-2-cyanopyrimidine-4-carboxamide]"
4,> 7.82,"CC(=O)Nc1cccc(-c2ccc3nc(-c4cccnc4N)n(-c4ccc(CN5CCN(c6ccnc(C#N)n6)CC5)cc4)c3n2)c1 [Example 44, N-(3-(2-(2-Aminopyridin-3-yl)-3-(4-((4-(2-cyanopyrimidin-4-yl)piperazin-1-yl)methyl)phenyl)-3H-imidazo[4,5-b]pyridin-5-yl)phenyl)acetamide]"
5,5.00 to 6.22,"N#Cc1ccc(NCc2ccc(-n3c(-c4cccnc4N)nc4cccnc43)cc2)cn1 [Example 128, 5-((4-(2-(2-Aminopyridin-3-yl)-3H-imidazo[4,5-b]pyridin-3-yl)benzyl)amino)picolinonitrile]"
6,5.00 to 6.22,"N#Cc1cccc(C(=O)NCc2ccc(-n3c(-c4cccnc4N)nc4cccnc43)cc2)n1 [Example 108, N-(4-(2-(2-Aminopyridin-3-yl)-3H-imidazo[4,5-b]pyridin-3-yl)benzyl)-6-cyanopicolinamide]"
7,> 7.82,"N#Cc1nccc(N2CCN(Cc3ccc(-n4c(-c5cccnc5N)nc5ccc(-c6ccccc6C#N)nc54)cc3)CC2)n1 [Example 293, 4-(4-(4-(2-(2-Aminopyridin-3-yl)-5-(2-cyanophenyl)-3H-imidazo[4,5-b]pyridin-3-yl)benzyl)piperazin-1-yl)pyrimidine-2-carbonitrile]"
8,> 7.82,"Cn1cccc(-c2ccc3nc(-c4cccnc4N)n(-c4ccc(CN5CCC(Nc6ccnc(C#N)n6)CC5)cc4)c3n2)c1=O [Example 261, 4-((1-(4-(2-(2-Aminopyridin-3-yl)-5-(1-methyl-2-oxo-1,2-dihydropyridin-3-yl)-3H-imidazo[4,5-b]pyridin-3-yl)benzyl)piperidin-4-yl)amino)pyrimidine-2-carbonitrile]"
